Reference: patent publication US9364467B2 (Salix Pharmaceuticals, Ltd, priority 2012, dated 2016)
≈ marks a conversion by molar mass, not a printed value. Where two headings read alike, the source gives them in different places.

Experiments:
[1] = test system: Enterobacteriaceae spp. strains; assay: In vitro activity (MIC) against Enterobacteriaceae spp. strains
[2] = test system: S. haemolyticus; assay: In vitro activity (MIC) against S. haemolyticus strains; settings: Staphylococcus haemolyticus

SMILES: CO[C@H]1/C=C/O[C@@]2(C)Oc3c(C)c(O)c4c(O)c(c5c(nc6cc(C)ccn65)c4c3C2=O)NC(=O)/C(C)=C\C=C\[C@H](C)[C@H](O)[C@@H](C)[C@@H](O)[C@@H](C)[C@H](OC(C)=O)[C@@H]1C [Rifaximin, reference compound]
- MIC [1]: 32 µg/mL (≈ 40.7 µM)
- MIC50 [1]: 32 µg/mL (≈ 40.7 µM)
- MIC90 [1]: 32 µg/mL (≈ 40.7 µM)
- MIC ([1]; Citrobacter freundii, C. freundii 57): 16 µg/mL (≈ 20.4 µM)
- MIC ([1]; Citrobacter freundii, C. freundii 58): 32 µg/mL (≈ 40.7 µM)
- MIC ([1]; Citrobacter freundii, C. freundii 65): 32 µg/mL (≈ 40.7 µM)
- MIC ([1]; Citrobacter freundii, C. freundii 68): 32 µg/mL (≈ 40.7 µM)
- MIC ([1]; Citrobacter freundii, C. freundii 69): 32 µg/mL (≈ 40.7 µM)
- MIC ([1]; Citrobacter freundii, C. freundii 1070): 32 µg/mL (≈ 40.7 µM)
- MIC ([1]; Citrobacter freundii, C. freundii 1073): 32 µg/mL (≈ 40.7 µM)
- MIC ([1]; Citrobacter freundii, C. freundii 1075): 32 µg/mL (≈ 40.7 µM)
- MIC ([1]; Enterobacter cloacae, E. cloacae 1): 32 µg/mL (≈ 40.7 µM)
- MIC ([1]; Enterobacter cloacae, E. cloacae 3): 32 µg/mL (≈ 40.7 µM)
- MIC ([1]; Enterobacter cloacae, E. cloacae 8): 32 µg/mL (≈ 40.7 µM)
- MIC ([1]; Enterobacter cloacae, E. cloacae 12): 32 µg/mL (≈ 40.7 µM)
- MIC ([1]; Enterobacter cloacae, E. cloacae 13): 32 µg/mL (≈ 40.7 µM)
- MIC ([1]; Enterobacter cloacae, E. cloacae 14): 32 µg/mL (≈ 40.7 µM)
- MIC ([1]; Enterobacter cloacae, E. cloacae 16): 32 µg/mL (≈ 40.7 µM)
- MIC ([1]; Enterobacter cloacae, E. cloacae 20): 32 µg/mL (≈ 40.7 µM)
- MIC ([1]; Enterobacter cloacae, E. cloacae 321): 32 µg/mL (≈ 40.7 µM)
- MIC ([1]; Enterobacter cloacae, E. cloacae 348): 32 µg/mL (≈ 40.7 µM)
- MIC ([1]; Enterobacter cloacae, E. cloacae 349): 32 µg/mL (≈ 40.7 µM)
- MIC ([1]; Enterobacter cloacae, E. cloacae 358): 32 µg/mL (≈ 40.7 µM)
- MIC ([1]; Enterobacter cloacae, E. cloacae 367): 32 µg/mL (≈ 40.7 µM)
- MIC ([1]; Enterobacter cloacae, E. cloacae 369): 32 µg/mL (≈ 40.7 µM)
- Range (MIC) ([1]; Enterobacteriaceae spp. strains): 8 to 32 µg/mL
- MIC ([1]; Escherichia coli, ATCC E. Coli 25922): 16 µg/mL (≈ 20.4 µM)
- MIC ([1]; Escherichia coli, E. coli 6): 32 µg/mL (≈ 40.7 µM)
- MIC ([1]; Escherichia coli, E. coli 15): 16 µg/mL (≈ 20.4 µM)
- MIC ([1]; Escherichia coli, E. coli 34): 32 µg/mL (≈ 40.7 µM)
- MIC ([1]; Escherichia coli, E. coli 37): 8 µg/mL (≈ 10.2 µM)
- MIC ([1]; Escherichia coli, E. coli 41): 16 µg/mL (≈ 20.4 µM)
- MIC ([1]; Escherichia coli, E. coli 43): 16 µg/mL (≈ 20.4 µM)
- MIC ([1]; Escherichia coli, E. coli 44): 16 µg/mL (≈ 20.4 µM)
- MIC ([1]; Escherichia coli, E. coli 46): 16 µg/mL (≈ 20.4 µM)
- MIC ([1]; Escherichia coli, E. coli 47): 32 µg/mL (≈ 40.7 µM)
- MIC ([1]; Escherichia coli, E. coli 48): 32 µg/mL (≈ 40.7 µM)
- MIC ([1]; Escherichia coli, E. coli 49): 32 µg/mL (≈ 40.7 µM)
- MIC ([1]; Escherichia coli, E. coli 56): 32 µg/mL (≈ 40.7 µM)
- MIC ([1]; Escherichia coli, E. coli 62): 32 µg/mL (≈ 40.7 µM)
- MIC ([1]; Escherichia coli, E. coli 71): 8 µg/mL (≈ 10.2 µM)
- MIC ([1]; Escherichia coli, E. coli 90): 16 µg/mL (≈ 20.4 µM)
- MIC ([1]; Escherichia coli, E. coli 92): 32 µg/mL (≈ 40.7 µM)
- MIC ([1]; Escherichia coli, E. coli 93): 32 µg/mL (≈ 40.7 µM)
- MIC ([1]; Escherichia coli, E. coli 95): 32 µg/mL (≈ 40.7 µM)
- MIC ([1]; Escherichia coli, E. coli 96): 8 µg/mL (≈ 10.2 µM)
- MIC ([1]; Escherichia coli, E. coli 97): 32 µg/mL (≈ 40.7 µM)
- MIC ([1]; Escherichia coli, E. coli 100): 32 µg/mL (≈ 40.7 µM)
- MIC ([1]; Escherichia coli, E. coli 102): 16 µg/mL (≈ 20.4 µM)
- MIC ([1]; Escherichia coli, E. coli 103): 32 µg/mL (≈ 40.7 µM)
- MIC ([1]; Escherichia coli, E. coli 109): 32 µg/mL (≈ 40.7 µM)
- MIC ([1]; Escherichia coli, E. coli 110): 32 µg/mL (≈ 40.7 µM)
- MIC ([1]; Escherichia coli, E. coli 112): 32 µg/mL (≈ 40.7 µM)
- MIC ([1]; Escherichia coli, E. coli 113): 32 µg/mL (≈ 40.7 µM)
- MIC ([1]; Escherichia coli, E. coli 117): 16 µg/mL (≈ 20.4 µM)
- MIC ([1]; Escherichia coli, E. coli 118): 32 µg/mL (≈ 40.7 µM)
- MIC ([1]; Escherichia coli, E. coli 120): 32 µg/mL (≈ 40.7 µM)
- MIC ([1]; Escherichia coli, E. coli 140): 32 µg/mL (≈ 40.7 µM)
- MIC ([1]; Escherichia coli, E. coli 171): 32 µg/mL (≈ 40.7 µM)
- MIC ([1]; Escherichia coli, E. coli 342): 32 µg/mL (≈ 40.7 µM)
- MIC ([1]; Escherichia coli, E. coli 343): 32 µg/mL (≈ 40.7 µM)
- MIC ([1]; Escherichia coli, E. coli 345): 32 µg/mL (≈ 40.7 µM)
- MIC ([1]; Escherichia coli, E. coli 349): 32 µg/mL (≈ 40.7 µM)
- MIC ([1]; Escherichia coli, E. coli 351): 32 µg/mL (≈ 40.7 µM)
- MIC ([1]; Klebsiella aerogenes, E. aerogenes 235): 32 µg/mL (≈ 40.7 µM)
- MIC ([1]; Klebsiella aerogenes, E. aerogenes 281): 32 µg/mL (≈ 40.7 µM)
- MIC ([1]; Klebsiella aerogenes, E. aerogenes 290): 32 µg/mL (≈ 40.7 µM)
- MIC ([1]; Klebsiella aerogenes, E. aerogenes 1023): 32 µg/mL (≈ 40.7 µM)
- MIC ([1]; Klebsiella aerogenes, E. aerogenes 1030): 32 µg/mL (≈ 40.7 µM)
- MIC ([1]; Klebsiella aerogenes, E. aerogenes 1031): 32 µg/mL (≈ 40.7 µM)
- MIC ([1]; Klebsiella oxytoca, K. oxytoca 4): 32 µg/mL (≈ 40.7 µM)
- MIC ([1]; Klebsiella oxytoca, K. oxytoca 18): 32 µg/mL (≈ 40.7 µM)
- MIC ([1]; Klebsiella oxytoca, K. oxytoca 479): 32 µg/mL (≈ 40.7 µM)
- MIC ([1]; Klebsiella oxytoca, K. oxytoca 499): 32 µg/mL (≈ 40.7 µM)
- MIC ([1]; Klebsiella pneumoniae, K. pneumoniae 17): 32 µg/mL (≈ 40.7 µM)
- MIC ([1]; Klebsiella pneumoniae, K. pneumoniae 19): 32 µg/mL (≈ 40.7 µM)
- MIC ([1]; Klebsiella pneumoniae, K. pneumoniae 76): 32 µg/mL (≈ 40.7 µM)
- MIC ([1]; Klebsiella pneumoniae, K. pneumoniae 80): 32 µg/mL (≈ 40.7 µM)
- MIC ([1]; Klebsiella pneumoniae, K. pneumoniae 91): 32 µg/mL (≈ 40.7 µM)
- MIC ([1]; Klebsiella pneumoniae, K. pneumoniae 1064): 32 µg/mL (≈ 40.7 µM)
- MIC ([1]; Morganella morganii, M. morganii 42): 16 µg/mL (≈ 20.4 µM)
- MIC ([1]; Morganella morganii, M. morganii 48): 32 µg/mL (≈ 40.7 µM)
- MIC ([1]; Morganella morganii, M. morganii 50): 32 µg/mL (≈ 40.7 µM)
- MIC ([1]; Morganella morganii, M. morganii 57): 32 µg/mL (≈ 40.7 µM)
- MIC ([1]; Morganella morganii, M. morganii 67): 32 µg/mL (≈ 40.7 µM)
- MIC ([1]; Morganella morganii, M. morganii 101): 32 µg/mL (≈ 40.7 µM)
- MIC ([1]; Morganella morganii, M. morganii 105): 32 µg/mL (≈ 40.7 µM)
- MIC ([1]; Morganella morganii, M. morganii 108): 32 µg/mL (≈ 40.7 µM)
- MIC ([1]; Morganella morganii, M. morganii 453): 8 µg/mL (≈ 10.2 µM)
- MIC ([1]; Morganella morganii, M. morganii 458): 32 µg/mL (≈ 40.7 µM)
- MIC ([1]; Morganella morganii, M. morganii 461): 32 µg/mL (≈ 40.7 µM)
- MIC ([1]; Morganella morganii, M. morganii 462): 32 µg/mL (≈ 40.7 µM)
- MIC ([1]; Morganella morganii, M. morganii 923): 16 µg/mL (≈ 20.4 µM)
- MIC ([1]; Morganella morganii, M. morganii 932): 32 µg/mL (≈ 40.7 µM)
- MIC ([1]; Morganella morganii, M. morganii 935): 32 µg/mL (≈ 40.7 µM)
- MIC ([1]; Morganella morganii, M. morganii 1006): 8 µg/mL (≈ 10.2 µM)
- MIC ([1]; Proteus mirabilis, P. mirabilis 465): 32 µg/mL (≈ 40.7 µM)
- MIC ([1]; Proteus mirabilis, P. mirabilis 466): 32 µg/mL (≈ 40.7 µM)
- MIC ([1]; Proteus mirabilis, P. mirabilis 469): 32 µg/mL (≈ 40.7 µM)
- MIC ([1]; Proteus mirabilis, P. mirabilis 470): 16 µg/mL (≈ 20.4 µM)
- MIC ([1]; Proteus mirabilis, P. mirabilis 471): 8 µg/mL (≈ 10.2 µM)
- MIC ([1]; Proteus mirabilis, P. mirabilis 472): 8 µg/mL (≈ 10.2 µM)
- MIC ([1]; Proteus mirabilis, P. mirabilis 473): 16 µg/mL (≈ 20.4 µM)
- MIC ([1]; Proteus mirabilis, P. mirabilis 477): 32 µg/mL (≈ 40.7 µM)
- MIC ([1]; Proteus mirabilis, P. mirabilis 479): 32 µg/mL (≈ 40.7 µM)
- MIC ([1]; Proteus mirabilis, P. mirabilis 480): 32 µg/mL (≈ 40.7 µM)
- MIC ([1]; Proteus mirabilis, P. mirabilis 489): 32 µg/mL (≈ 40.7 µM)
- MIC ([1]; Proteus mirabilis, P. mirabilis 928): 32 µg/mL (≈ 40.7 µM)
- MIC ([1]; Proteus mirabilis, P. mirabilis 972): 32 µg/mL (≈ 40.7 µM)
- MIC ([1]; Proteus mirabilis, P. mirabilis 983): 16 µg/mL (≈ 20.4 µM)
- MIC ([1]; Proteus mirabilis, P. mirabilis 985): 32 µg/mL (≈ 40.7 µM)
- MIC ([1]; Proteus mirabilis, P. mirabilis 987): 32 µg/mL (≈ 40.7 µM)
- MIC ([1]; Proteus mirabilis, P. mirabilis 988): 8 µg/mL (≈ 10.2 µM)
- MIC ([1]; Proteus mirabilis, P. mirabilis 990): 32 µg/mL (≈ 40.7 µM)
- MIC ([1]; Proteus mirabilis, P. mirabilis 991): 32 µg/mL (≈ 40.7 µM)
- MIC ([1]; Proteus mirabilis, P. mirabilis 993): 16 µg/mL (≈ 20.4 µM)
- MIC ([1]; Proteus mirabilis, P. mirabilis 995): 32 µg/mL (≈ 40.7 µM)
- MIC ([1]; Proteus mirabilis, P. mirabilis 996): 32 µg/mL (≈ 40.7 µM)
- MIC ([1]; Proteus mirabilis, P. mirabilis 997): 32 µg/mL (≈ 40.7 µM)
- MIC ([1]; Proteus mirabilis, P. mirabilis 998): 8 µg/mL (≈ 10.2 µM)
- MIC ([1]; Providencia stuartii, P. stuartii 94): 32 µg/mL (≈ 40.7 µM)
- MIC ([1]; Providencia stuartii, P. stuartii 299): 16 µg/mL (≈ 20.4 µM)
- MIC ([1]; Providencia stuartii, P. stuartii 301): 32 µg/mL (≈ 40.7 µM)
- MIC ([1]; Providencia stuartii, P. stuartii 306): 16 µg/mL (≈ 20.4 µM)
- MIC ([1]; Providencia stuartii, P. stuartii 312): 32 µg/mL (≈ 40.7 µM)
- MIC ([1]; Providencia stuartii, P. stuartii 459): 32 µg/mL (≈ 40.7 µM)
- MIC ([1]; S. odorifera 59): 32 µg/mL (≈ 40.7 µM)
- MIC ([1]; Serratia marcescens, S. marcescens 38): 32 µg/mL (≈ 40.7 µM)
- MIC ([1]; Serratia marcescens, S. marcescens 45): 32 µg/mL (≈ 40.7 µM)
- MIC ([1]; Serratia marcescens, S. marcescens 59): 32 µg/mL (≈ 40.7 µM)
- MIC ([1]; Serratia marcescens, S. marcescens 63): 32 µg/mL (≈ 40.7 µM)
- MIC ([1]; Stenotrophomonas maltophilia, S. maltophilia 1203): 32 µg/mL (≈ 40.7 µM)
- MIC ([1]; Stenotrophomonas maltophilia, S. maltophilia 1208): 32 µg/mL (≈ 40.7 µM)
- MIC ([2]; strain S. haemolyticus 243): 0.06 µg/mL (≈ 0.0763 µM)
- MIC ([2]; strain S. haemolyticus 276): 0.12 µg/mL (≈ 0.153 µM)
- MIC ([2]; strain S. haemolyticus 955): 0.12 µg/mL (≈ 0.153 µM)
- MIC ([2]; strain S. haemolyticus 982): 0.06 µg/mL (≈ 0.0763 µM)
